# Values joined by “and” are separate entries in the source; they are usually repeats but may differ in a detail not shown here. Equal entries are not always repeated.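 Where inhibition never reached the appropriate level, the endpoint shown equals the highest concentration tested. Otherwise, values were interpolated linearly from a five-concentration, 48-hour dose response in 96-well plates. GI50 = concentration required for 50% inhibition of growth. TGI denotes the concentration required for complete inhibition of growth.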
# Columns and labels:
# Test in all cases: NCI tumour cell line growth inhibition, 48 h
# [1] = tested on: HT29 colon
# [2] = tested on: HOP-62 NSCLC
# [3] = tested on: P388/ADR leukemia
# [4] = tested on: U251 CNS
# [5] = tested on: OVCAR-8 ovarian
# [6] = tested on: SK-MEL-2 melanoma
# [7] = tested on: XF 498 CNS
# [8] = tested on: PC-3 prostate
# [9] = tested on: ACHN renal
# [10] = tested on: HS 578T breast
# [11] = tested on: SF-268 CNS
# [12] = tested on: MDA-MB-435
# [13] = tested on: NCI-H226 lung
# [14] = tested on: DMS 273 small cell lung
# [15] = tested on: HCC-2998 colon
# [16] = tested on: NCI-H23 lung
# [17] = tested on: KM12 colon
# [18] = tested on: SN12K1 renal
# [19] = tested on: M14 melanoma
# [20] = tested on: LOX IMVI melanoma
# [21] = tested on: CAKI-1 renal
# [22] = tested on: DU-145 prostate
# [23] = tested on: MCF7 breast
# [24] = tested on: DMS 114 small cell lung
# [25] = tested on: KM20L2 colon
# [26] = tested on: HCT-116 colon
# [27] = tested on: SNB-75 CNS
# [28] = tested on: HCT-15 colon
# [29] = tested on: DLD-1 colon
# [30] = tested on: MALME-3M melanoma
# [31] = tested on: UO-31 renal
# [32] = tested on: TK-10 renal
# [33] = tested on: NCI-H460 lung
# [34] = tested on: CCRF-CEM leukemia
# [35] = tested on: SN12C renal
# [36] = tested on: OVCAR-3 ovarian
# [37] = tested on: UACC-62 melanoma
# [38] = tested on: EKVX NSCLC
# [39] = tested on: BT-549 breast
# [40] = tested on: HOP-18 NSCLC
# [41] = tested on: M19-MEL melanoma
# [42] = tested on: RPMI-8226 leukemia
# [43] = tested on: NCI/ADR-RES ovarian
# [44] = tested on: OVCAR-5 ovarian
# [45] = tested on: K-562 leukemia
# [46] = tested on: OVCAR-4 ovarian
# [47] = tested on: NCI-H522 lung
# [48] = tested on: A498 renal
# [49] = tested on: T-47D breast
# [50] = tested on: SF-539 CNS
# [51] = tested on: SR leukemia
# [52] = tested on: IGROV1 ovarian
# [53] = tested on: SF-295 CNS
# [54] = tested on: MDA-MB-231 breast
# [55] = tested on: SW-620 colon
# [56] = tested on: 786-0 renal
smiles,measurement,setting,value
C/C(=C\COc1ccc2ccc(=O)oc2c1)C1=CC(=O)C(C)(C)O1,GI50,[1],3.55 µM
same,TGI,[1],13.3 µM and 7.83 µM
same,GI50,[2],6.12 µM
same,TGI,[2],39.7 µM and 14.1 µM
same,TGI,[3],7.3 µM
same,GI50,[4],2.7 µM
same,TGI,[4],10.1 µM and 8.61 µM
same,GI50,[5],2.18 µM
same,GI50,[6],4.19 µM
same,TGI,[6],23.2 µM and 15.1 µM
same,TGI,[7],7.74 µM
same,TGI,[8],23.3 µM
same,TGI,[9],15.9 µM
same,TGI,[10],7.3 µM
same,GI50,[11],4.74 µM
same,TGI,[11],14.9 µM and 14.3 µM
same,TGI,[12],13.2 µM
same,GI50,[13],2.64 µM
same,TGI,[13],7.24 µM and 10.2 µM
same,TGI,[14],27.9 µM
same,GI50,[15],2.85 µM
same,TGI,[15],5.76 µM and 8.34 µM
same,GI50,[16],2.79 µM
same,TGI,[16],12.3 µM and 8.98 µM
same,GI50,[17],2.66 µM and 2.35 µM
same,TGI,[17],9.77 µM and 8.59 µM
same,TGI,[18],9.97 µM
same,TGI,[19],16.3 µM
same,GI50,[20],2.2 µM
same,TGI,[20],9.69 µM and 7.47 µM
same,GI50,[21],3.77 µM
same,TGI,[21],14.6 µM and 19.8 µM
same,TGI,[22],7.34 µM
same,GI50,[23],2.35 µM and 1.09 µM
same,TGI,[23],12.9 µM and 5.4 µM
same,TGI,[24],9.44 µM
same,TGI,[25],8.53 µM
same,GI50,[26],2.84 µM
same,TGI,[26],7.57 µM and 6.64 µM
same,GI50,[27],3.55 µM
same,TGI,[27],14.6 µM and 15.4 µM
same,TGI,[28],15.9 µM and 19.4 µM
same,TGI,[29],30.8 µM
same,TGI,[30],25.6 µM and 14.8 µM
same,GI50,[31],3.83 µM
same,TGI,[31],14.7 µM and 14 µM
same,TGI,[32],16.7 µM
same,GI50,[33],2.61 µM and 4.07 µM
same,TGI,[33],6.29 µM and 11.5 µM
same,GI50,[34],2.28 µM
same,TGI,[34],7.11 µM and 21.4 µM
same,GI50,[35],3.34 µM
same,TGI,[35],14.1 µM and 10.8 µM
same,GI50,[36],2.44 µM
same,TGI,[36],5.55 µM and 9.43 µM
same,GI50,[37],2.3 µM
same,TGI,[37],6.43 µM and 10.5 µM
same,GI50,[38],4.9 µM
same,TGI,[38],28.2 µM and 30.6 µM
same,TGI,[39],19.1 µM
same,TGI,[40],80.5 µM
same,TGI,[41],14.6 µM
same,TGI,[42],6.2 µM and 15.7 µM
same,GI50,[43],3.81 µM
same,TGI,[43],> 100 µM and 35.6 µM
same,GI50,[44],3.19 µM
same,TGI,[44],10.8 µM and 20.9 µM
same,GI50,[45],1.85 µM
same,GI50,[46],4.3 µM
same,TGI,[46],24.8 µM and 7.56 µM
same,GI50,[47],2.37 µM and 0.804 µM
same,TGI,[47],7.73 µM and 3.76 µM
same,GI50,[48],2.79 µM
same,TGI,[48],7.32 µM and 9.56 µM
same,TGI,[49],30.6 µM
same,TGI,[50],4.88 µM and 8.64 µM
same,TGI,[51],4.92 µM
same,GI50,[52],2.73 µM
same,TGI,[52],9.02 µM and 22.1 µM
same,GI50,[53],4.3 µM
same,TGI,[53],20.4 µM and 8.41 µM
same,TGI,[54],22.9 µM
same,GI50,[55],2.27 µM
same,TGI,[55],5.58 µM and 14.7 µM
same,TGI,[56],12.9 µM
